One series concerns the target PDE10A enzyme (Homo sapiens (Human), UniProt Q9Y233). The experiment in a line: PDE10A inhibition assay (3H-cAMP, SPA beads). The conditions noted are these: 10 nM 3H-cAMP, 1 hour incubation; read-out: PDE10 IC50. Type of series: biochemical. The method, then: PDE10A can be expressed as full-length proteins or as truncated proteins, as long as they express the catalytic domain, PDE10A can be prepared in different cell types, for example insect cells or E. coli. […] Expression in coil is performed according to standard protocols. Briefly, the expression plasmids are transformed into the BL21(DE3) E. coli strain, and 50 mL cultures inoculated with the cells allowed to grow to an OD600 of 0.4-0.6 before protein expression is induced with 0.5 mM IPTG. Following induction, the cells are incubated overnight at room temperature, after which the cells are collected by centrifugation. Cells expressing PDE10A are resuspended in 12 mL (50 mM TRIS-HCl-pH8.0, 1 mM MgCl2 and protease inhibitors). The cells are lysed by sonication, and after all cells are lysed, TritonX100 is added according to Novagen protocols.
Reactions are initiated by addition of the cyclic nucleotide substrate, and reactions are allowed to proceed for one hr at room temperature before being terminated through mixing with 15 uL […] yttrium silicate SPA beads (Amersham).
Following a 1 hour incubation the reactions were terminated by addition of 15 uL 8 mg/mL yttrium silicate SPA beads (Amersham). […] were calculated by non linear regression using XLfit (IDBS).

Series [1] concerns hyperactivity in rats induced by PCP. The conditions noted are these: cited from earlier work.
The subject of series [2] is amphetamine induced hyperactivity. The conditions noted are these: rats; cited from earlier work.
A further series concerns catalepsy in rats. The conditions noted are these: cited from earlier work.
In series [3] the test system is PCP induced hyperactivity in mice. Kind of series: Phencyclidine (PCP) induced hyperactivity. Type of series: in vivo, mice (NMRI). The conditions noted are these: Mus musculus. The procedure:
Male mice (NMRI, Charles River) weighing 20-25 g are used. Eight mice are used in each group receiving the test compound (5 mg/kg) plus PCP (2.3 mg/kg) including the parallel control groups receiving the vehicle of the test compound plus PCP or vehicle injections only. The injection volume is 10 ml/kg. The experiment is made in normal light conditions in an undisturbed room. The test substance is injected per oss 60 min before injection of PCP, which is administered subcutaneous.
Immediately after injection of PCP the mice are placed individually in special designed test cage (20 cm×32 cm). The activity is measured by 5×8 infrared light sources and photocells spaced by 4 cm. The light beams cross the cage 1.8 cm above the bottom of the cage. […]
Motility is recorded in 5 min intervals for a period of 1 hour. The drug effect is calculated on the total counts during the 1 hour behavioral test period in the following manner:
The mean motility induced by vehicle treatment in the absence of PCP is used as baseline. The 100 percent effect of PCP is accordingly calculated to be total motility counts minus baseline. The response in groups receiving test compound is thus determined by the total motility counts minus baseline, expressed in percent of the similar result recorded in the parallel PCP control group. […]

Sequence of PDE10A enzyme (Q9Y233 716-1055): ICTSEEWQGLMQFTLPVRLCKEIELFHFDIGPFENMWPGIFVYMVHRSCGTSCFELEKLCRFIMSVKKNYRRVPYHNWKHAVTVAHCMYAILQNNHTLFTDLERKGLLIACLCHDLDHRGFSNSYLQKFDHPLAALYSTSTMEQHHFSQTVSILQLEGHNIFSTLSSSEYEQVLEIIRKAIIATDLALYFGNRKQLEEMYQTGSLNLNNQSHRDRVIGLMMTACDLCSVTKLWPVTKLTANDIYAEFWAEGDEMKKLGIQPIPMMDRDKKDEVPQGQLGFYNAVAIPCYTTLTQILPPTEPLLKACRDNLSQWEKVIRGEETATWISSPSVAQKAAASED

`Cc1ncc(C)n2nc(CCc3cn4c(n3)-c3ccccc3CC4)nc12` [2-[2-(5,8-Dimethyl-[1,2,4]triazolo[1,5-a]pyrazin-2-yl)-ethyl]-5,6-dihydro-imidazo[2,1-a]isoquinoline]: the IC50 on PDE10A enzyme turned out to be 0.81 nM.

`Cc1ncc(C)n2nc(CCc3cn4c(n3)-c3cccnc3C4)nc12` [2-[2-(5,8-Dimethyl-[1,2,4]triazolo[1,5-a]pyrazin-2-yl)-ethyl]-5H-imidazo[1′,2′:1,5]pyrrolo[3,4-b]pyridine]: the IC50 at PDE10A enzyme came to 3.8 nM.

Regarding `COc1ccc(Cc2nccc3cc(OC)c(OC)cc23)cc1OC` [Papaverine, papaverine], the “Hyperactivity induced by PCP” value in series [1] is “reduced hyperactivity”. Further, in series [2], the “Reduction of amphetamine induced hyperactivity” value is “insignificant”. For the same compound, in the series with catalepsy in rats (alone), the “Catalepsy on its own” value is given as “did not cause catalepsy on its own”. The “Effect on the cataleptic effect of the D2 receptor antagonist haloperidol” value in the series with catalepsy in rats (together with haloperidol) is recorded as “potentiated the cataleptic effect”.

Regarding `Cc1ncc(C)n2nc(CCc3cn4c(n3)-c3cc(F)ccc3C4)nc12` [2-[-2-(5,8-Dimethyl-[1,2,4]triazolo[1,5-a]pyrazin-2-yl)-ethyl]-8-fluoro-5H-imidazo[2,1-a]isoindole], the IC50 at PDE10A enzyme turned out to be 3.1 nM.

On to `Cc1ncc(C)n2nc(C=Cc3cn4c(n3)-c3ccccc3C4)nc12` (racemic) [2-[-2-(5,8-Dimethyl-[1,2,4]triazolo[1,5-a]pyrazin-2-yl)-vinyl]-5H-imidazo[2,1-a]isoindole], for which the IC50 on PDE10A enzyme stood at 4.4 nM.

Regarding `Cc1cc(C)n2nc(SCc3cn4c(n3)-c3ccccc3C4)nc2n1` [2-[(5,7-dimethyl-[1,2,4]triazolo[1,5-a]pyrimidin-2-yl)sulfanylmethyl]-5H-imidazo[2,1-a]isoindole], the IC50 on PDE10A enzyme was found to be 260 nM.

With `Cc1ncc(C)n2nc(CCc3cn4c(n3)-c3ccccc3C4C(C)(C)O)nc12` (centres unmarked) [2-{2-[2-(5,8-Dimethyl-[1,2,4]triazolo[1,5-a]pyrazin-2-yl)-ethyl]-5H-imidazo[2,1-a]isoindol-5-yl}-propan-2-ol], at PDE10A enzyme, the IC50 stood at 21 nM.

Take `Cc1cnc(CO)c2nc(CCc3cn4c(n3)-c3ccccc3C4)nn12` [{2-[2-(5H-Imidazo[2,1-a]isoindol-2-yl)-ethyl]-5-methyl-[1,2,4]triazolo[1,5-a]pyrazin-8-yl}-methanol]: the IC50 at PDE10A enzyme stood at 6.9 nM.

Consider `Cc1ncc(C)n2nc(CCc3cn4c(n3)-c3ncccc3C4)nc12` [2-[2-(5,8-Dimethyl-[1,2,4]triazolo[1,5-a]pyrazin-2-yl)-ethyl]-5H-imidazo[1′,2′:1,2]pyrrolo[3,4-b]pyridine], for which the IC50 on PDE10A enzyme is 46 nM.

In the case of `[2H]C([2H])([2H])c1ncc(C([2H])([2H])[2H])n2nc(CCc3cn4c(n3)-c3ccccc3C4([2H])[2H])nc12` [2-[2-(5,8-Bis(trideuteromethyl-[1,2,4]triazolo[1,5-a]pyrazin-2-yl)-ethyl]-5,5-dideutero-5H-imidazo[2,1-a]isoindole], at PDE10A enzyme, the half-inhibitory concentration (IC50) is 0.4 nM.

Turning to `Cc1c[n+]([O-])c(C)c2nc(CCc3cn4c(n3)-c3ccccc3C4)nn12` [2-[-2-(5,8-Dimethyl-7-oxy-[1,2,4]triazolo[1,5-a]pyrazin-2-yl)-ethyl]-5H-imidazo[2,1-a]isoindole], the IC50 at PDE10A enzyme amounted to 2.4 nM.

As to `Cc1ccc(C)n2nc(CCc3cn4c(n3)-c3ccccc3C4)nc12` [2-[2-(5,8-Dimethyl-[1,2,4]triazolo[1,5-a]pyridin-2-yl)-ethyl]-5H-imidazo[2,1-a]isoindole], at PDE10A enzyme, the IC50 was found to be 0.69 nM.

Turning to `Cc1cccc2nc(CCc3cn4c(n3)-c3ccccc3C4)nn12` [2-[2-(5-Methyl-[1,2,4]triazolo[1,5-a]pyridin-2-yl)-ethyl]-5H-imidazo[2,1-a]isoindole], the half-maximal inhibitory concentration (IC50) on PDE10A enzyme was 6.1 nM.

As for `COc1cccc2c1-c1nc(CCc3nc4c(C)ncc(C)n4n3)cn1C2` [2-[2-(5,8-Dimethyl-[1,2,4]triazolo[1,5-a]pyrazin-2-yl)-ethyl]-9-methoxy-5H-imidazo[2,1-a]isoindole], at PDE10A enzyme, the IC50 was 0.44 nM.

Regarding `COc1cccc2c1Cn1cc(CCc3nc4c(C)ncc(C)n4n3)nc1-2` [2-[2-(5,8-Dimethyl-[1,2,4]triazolo[1,5-a]pyrazin-2-yl)-ethyl]-6-methoxy-5H-imidazo[2,1-a]isoindole], at PDE10A enzyme, the IC50 came to 0.44 nM.

As for `Cc1ncc(C)n2nc(CCc3cn4c(n3)-c3ccc(F)cc3C4)nc12` [2-[-2-(5,8-Dimethyl-[1,2,4]triazolo[1,5-a]pyrazin-2-yl)-ethyl]-7-fluoro-5H-imidazo[2,1-a]isoindole], on PDE10A enzyme, the IC50 turned out to be 0.18 nM.

As for `Cc1ncc(C)n2nc(CCc3cn4c(n3)-c3ccccc3C4)nc12` [2-[-2-(5,8-Dimethyl-[1,2,4]triazolo[1,5-a]pyrazin-2-yl)-ethyl]-5H-imidazo[2,1-a]isoindole], the IC50 at PDE10A enzyme turned out to be 0.4 nM. The same compound displayed an inhibition at 5 mg/kg in series [3] (at 5 mg/kg per os, PCP 2.3 mg/kg s.c.) of 100%. Besides, the ED50 in series [3] (per os 60 min before PCP 2.3 mg/kg s.c., read-out: ED50, inhibition of PCP induced hyperactivity) was 0.2 mg/kg.

Consider `Cc1ncc(C)n2nc(CCc3cn4c(n3)-c3cccc(F)c3C4)nc12` [2-[2-(5,8-Dimethyl-[1,2,4]triazolo[1,5-a]pyrazin-2-yl)-ethyl]-6-fluoro-5H-imidazo[2,1-a]isoindole], for which, on PDE10A enzyme, the IC50 worked out at 1.2 nM.

For the compound `Cc1ncc(C)n2nc(CCc3cn4c(n3)-c3c(F)cccc3C4)nc12` [2-[2-(5,8-Dimethyl-[1,2,4]triazolo[1,5-a]pyrazin-2-yl)-ethyl]-9-fluoro-5H-imidazo[2,1-a]isoindole], the half-maximal inhibitory concentration (IC50) on PDE10A enzyme was found to be 0.79 nM.

As to `COc1ccc2c(c1)Cn1cc(CCc3nc4c(C)ncc(C)n4n3)nc1-2` [2-[2-(5,8-Dimethyl-[1,2,4]triazolo[1,5-a]pyrazin-2-yl)-ethyl]-7-methoxy-5H-imidazo[2,1-a]isoindole], the IC50 on PDE10A enzyme was 0.29 nM.

As to `COc1ccc2c(c1)-c1nc(CCc3nc4c(C)ncc(C)n4n3)cn1C2` [2-[2-(5,8-Dimethyl-[1,2,4]triazolo[1,5-a]pyrazin-2-yl)-ethyl]-8-methoxy-5H-imidazo[2,1-a]isoindole], the half-inhibitory concentration (IC50) at PDE10A enzyme stood at 6.9 nM.

Broadly, the IC50 is the concentration needed to halve the response being measured. As usually defined, the inhibition is the percentage by which the read-out fell short of the control. For orientation: ED50 means the dose that gives a 50% effect, or the effect in half of the subjects.

(Values after patent publication US8796304B2, “Tricyclic imidazole compounds as PDE10 inhibitors” (H. Lundbeck A/S, priority 2010, dated 2014).)
